“And” between values parts separate entries of the source, which are not always exact repeats. Equal entries are not always repeated.
Legend:
[1] = Histology of liver, lungs, salivary glands, colon (H&E, Sirius Red); format: in vivo, mouse; details: 10 mg/kg i.v.
OT-I CD8+ T cells = assay: T cell proliferation (CTV dilution); format: cell-based, mouse; set-up: CTV, single replicates / CTV, mean of differences (D - C): unit not given here; details: for CTV, single replicates: N4 0.5 nM, 1 μM, 3 days, Fig. 2C raw data
Description: For analyzing cellular proliferation in vitro, single-cell suspensions from lymph nodes of wild type (OT-I;Ptpn2^fl/fl) or PTPN2-deficient (OT-I;Lck-Cre;Ptpn2^fl/fl) mice were stained with 2 μM CellTrace^TM Violet (CTV; Molecular Probes, Thermo Fisher Scientific) in PBS supplemented with 0.1% (v/v) FBS for 20 min at 37 °C. […] On day 3, OT-I cells were harvested and CTV dilution was monitored by flow cytometry. For cell number quantification, known numbers of Flow-Count Fluorospheres (Beckman Coulter) were added to samples before analysis.

[2] = Serum anti-nuclear antibodies (ANA) ELISA; format: in vivo, mouse
Text: CD3ε (BD Biosciences Cat# 553058) and CD28 (BD Biosciences Cat# 557393) antibodies for T cell stimulation and NK1.1 (BD Biosciences Cat# 564143) antibody for NK cell stimulation were purchased from BD Biosciences. Ly49H (clone 3D10, BioLegend Cat# 144702) antibody for NK stimulation was from BioLegend. For analyzing T cell signaling, p-(Y418) SFK (Thermo Fisher Scientific Cat# 14-9034-82) was from Invitrogen and p-(Y694) STAT-5 (D47E7) XP® (Cell Signaling Technology Cat# 4322) was from Cell Signaling. Recombinant human IL-2, recombinant murine IL-7 and recombinant human IL-15 were purchased from the PeproTech, recombinant mouse IL-12 and recombinant human IL-18 were from Australia Biosearch and […] (N4) from Mimotopes. InVivoMAb anti-mouse PD-1 (Bio X Cell Cat# BE0146) and InVivoMAb rat IgG2a isotype control (Bio X Cell Cat# BE0251) were purchased from Bio X Cell. DNase I was from Sigma-Aldrich. Rabbit monoclonal PTP1B (Abcam Cat# ab244207) antibody for flow cytometry was from Abcam and mouse monoclonal PTPN2 6F3 antibody for immunoblotting and flow cytometry was from MédiMabs (Cat# MM-019-P). Mouse anti-actin (Thermo Fisher Scientific Cat# MA5-11866) from Invitrogen and mouse α-tubulin (Sigma-Aldrich Cat# T5168) was from Merck. The mouse anti-nuclear antibodies Ig’s (total IgA+G + M) ELISA Kit was from Alpha Diagnostic Int. and the Transaminase II Kit from Wako Pure Chemicals. FBS was purchased from Thermo Scientific, RPMI 1640, DMEM, MEM, HEPES, non-essential amino acids, penicillin/streptomycin, and sodium-pyruvate were from Invitrogen, collagenase type IV was purchased from Worthington Biochemical and ABBV-CLS-484 was from MedChemExpress (Cat# HY-145923).

[3] = Serum cytokines (BD Cytokine Bead Array) in AT3-OVA tumor-bearing mice; format: in vivo, mouse
Description: Single-cell suspensions from spleens and lymph nodes were obtained as described previously. For the detection of intracellular cytokines and granzyme B, T cells were fixed and permeabilized with the BD Cytofix/Cytoperm kit according to the manufacturer’s instructions. Briefly, T cells were first surface stained with fluorophore-conjugated antibodies and then fixed followed by permeabilization on ice for 20 min. Fixed and permeabilized cells were stained for IFN-γ, TNF, and granzyme B for 45 min at room temperature. For the detection of intracellular FoxP3 the Foxp3/Transcription Factor Staining Buffer Set (eBioscience) was used according to the manufacturer’s instructions. Briefly, cells were fixed and permeabilized for 1 h on ice followed by intracellular staining at room temperature for 45 min. For the detection of serum cytokines, the BD CBA Mouse Inflammation Kit™ was used according to the manufacturers’ instructions.

MC38 colon tumors = assay: MC38 colon tumor growth in C57BL/6 mice; format: in vivo, mouse
Description: Male or female mice were injected subcutaneously with 5 × 10^5 MC38 tumor cells resuspended in 100 μl D-PBS into the flank. Alternatively, female mice were injected orthotopically with 5 × 10^5 AT3 or AT3-OVA or PTPN2-deleted AT3 or AT3-OVA tumor cells resuspended in 20 μl D-PBS into the fourth mammary fat pad. Tumor sizes were measured in two dimensions (mm^2) using electronic callipers two to three times per week as soon as tumors were palpable (20–25 mm^2).

[4] = Figure 10A, serum, individual mice, listed as CMP-182, in pg/mL (unit assumed)

Question: For CC(C)(O)CCOc1ccc2cc(O)c(N3CC(=O)NS3(=O)=O)c(F)c2c1 [Compound 182, 5-(1-Fluoro-3-hydroxy-7-(3-hydroxy-3-methylbutoxy)naphthalen-2-yl)−1,2,5-thiadiazolidin-3-one 1,1-dioxide], which “liver fibrosis (Picrosirius red)” value [1] is on record?
Answer: The value was “no signs of liver fibrosis”.

Question: And the “lymphocytic infiltrates in liver, lungs, salivary glands and colon” value [1]?
Answer: The value was “did not observe any overt lymphocytic infiltrates”.

Question: And the “OT-I CD8+ T cell proliferation/expansion (CTV dilution)” value (OT-I CD8+ T cells)?
Answer: The value was “marked increases”.

Question: And the “CTV, mean of differences (D - C)” value (OT-I CD8+ T cells; 2KI vs. 2K, day 3, 4 pairs, Fig. 2C)?
Answer: The value was 23.93.

Question: And the “CTV, single replicates” value (OT-I CD8+ T cells; Lck-Cre;Ptpn2fl/fl (2K) OT-I cells, listed as 2KI)?
Answer: The value was 82.8 and 89.7 and 89.6 and 74.7.

Question: What about the “CTV, mean of differences (B - A)” value (OT-I CD8+ T cells; WTI vs. WT, day 3, 4 pairs, Fig. 2C) of the same compound?
Answer: Its value is 27.74.

Question: And the “CTV, single replicates” value (OT-I CD8+ T cells; wild type OT-I cells, listed as WTI)?
Answer: The value was 38.7 and 58 and 84.3 and 62.7.

Question: And the “serum anti-nuclear antibodies (ANA)” value ([2]; 10 mg/kg i.v.)?
Answer: Its value is “unaltered”.

Question: And the “Serum ANA” value ([2]; Figure 10C, individual mice, listed as CMP-182)?
Answer: The value was 77.3077 and 275 and 43.4615 and 42.6923 and 47.3077 and 142.692 and 64.2308.

Question: And the “ANA Serum, median” value ([2]; Figure 10C, median, n=8)?
Answer: Its value is 70.77, n=8.

Question: What about the “serum levels of pro-inflammatory cytokines IL-6, IFNγ and TNF” value ([3]; 10 mg/kg i.v.) of the same compound?
Answer: Its value is “not significantly increased”.

Question: What about the “Serum IFNg 2nd cohort, median” value ([3]; Figure 10A, median, n=8) of the same compound?
Answer: The value was 10.56, n=8.

Question: What about the “Serum IL-6 2nd cohort, median” value ([3]; Figure 10A, median, n=8) of the same compound?
Answer: Its value is 8.881, n=8.

Question: What about the “Serum TNF 2nd cohort, median” value ([3]; Figure 10A, median, n=8) of the same compound?
Answer: Its value is 15.88, n=8.

Question: And the IFN g [3, 4]?
Answer: Its IFN g is 8.688 and 8.172 and 5.3329 and 65.9781 and 16.5587 and 24.0426 and 12.4297 and 4.946.

Question: What about the IL-6 [3, 4] of the same compound?
Answer: The IL-6 was 14.2361 and 23.6555 and 10.1071 and 7.655 and 5.591 and 5.72 and 7.01 and 68.8168.

Question: What about the TNF [3, 4] of the same compound?
Answer: Its TNF is 7.107 and 11.4953 and 23.094 and 50.0533 and 23.4075 and 14.0031 and 17.7649 and 12.4357.

Question: What about the “Tumour weights MC38, individual mice” value (MC38 colon tumors; 10 mg, Figure 4A, listed as CMP-182, in mg (unit assumed)) of the same compound?
Answer: Its value is 243 and 125 and 480 and 119 and 315.

Question: And the “Tumour growth MC38, individual mice” value (MC38 colon tumors; 10 mg, day 7 post injection, listed as CMP-182, in mm2)?
Answer: Its value is 20.3252 and 20.2131 and 15.2865 and 13.9084 and 14.2859.

Question: What about the “Tumour growth MC38, individual mice” value (MC38 colon tumors; 10 mg, day 10 post injection, listed as CMP-182, in mm2) of the same compound?
Answer: The value was 21.1854 and 45.7254 and 22.9296 and 28.815 and 21.9308.

Question: What about the “Tumour growth MC38, individual mice” value (MC38 colon tumors; 10 mg, day 13 post injection, listed as CMP-182, in mm2) of the same compound?
Answer: Its value is 21.6489 and 72.4458 and 32.816 and 40.3221 and 29.9376.

Question: What about the “Tumour growth MC38, individual mice” value (MC38 colon tumors; 10 mg, day 15 post injection, listed as CMP-182, in mm2) of the same compound?
Answer: Its value is 31.85 and 42.18 and 22.5 and 27 and 32.94.

Question: And the “Tumour growth MC38, individual mice” value (MC38 colon tumors; 10 mg, day 16 post injection, listed as CMP-182, in mm2)?
Answer: Its value is 29.5394 and 119.382 and 44.1741 and 56.472 and 40.779.

Question: And the “Tumour growth MC38, individual mice” value (MC38 colon tumors; 10 mg, day 18 post injection, listed as CMP-182, in mm2)?
Answer: The value was 34.2 and 109.2 and 37.7 and 77.4 and 61.62.

Question: What about the “Tumour growth MC38, individual mice” value (MC38 colon tumors; 10 mg, day 20 post injection, listed as CMP-182, in mm2) of the same compound?
Answer: Its value is 38.76 and 109.2 and 38.35 and 60.8 and 61.62.

Question: What about the “growth of subcutaneous MC38 colorectal tumors” value (MC38 colon tumors; 10 mg/kg i.v. every 2 days) of the same compound?
Answer: The value was “repressed the growth”.

Question: And the “Tumour size, mean over all time points” value (MC38 colon tumors; Figure 4A (MC38), CMP-182 10 mg, n=5, line printed as AT-3, in mm2)?
Answer: The value was 42.78.

Question: And the “Tumour weights, median” value (MC38 colon tumors; MC38 tumours, CMP-182 10 mg, Figure 4A)?
Answer: Its value is 243.0, n=5.

Question: And the “Tumour size, Predicted (LS) mean 2” value (MC38 colon tumors; MC38 tumours, CMP-182 10 mg, n=5, time point 7, Figure 4A, in mm2)?
Answer: The value was 16.8.

Question: What about the “Tumour size, Predicted (LS) mean 2” value (MC38 colon tumors; MC38 tumours, CMP-182 10 mg, n=5, time point 10, Figure 4A, in mm2) of the same compound?
Answer: Its value is 28.12.

Question: And the “Tumour size, Predicted (LS) mean 2” value (MC38 colon tumors; MC38 tumours, CMP-182 10 mg, n=5, time point 13, Figure 4A, in mm2)?
Answer: Its value is 39.43.

Question: What about the “Tumour size, Predicted (LS) mean 2” value (MC38 colon tumors; MC38 tumours, CMP-182 10 mg, n=5, time point 15, Figure 4A, in mm2) of the same compound?
Answer: The value was 31.29.

Question: What about the “Tumour size, Predicted (LS) mean 2” value (MC38 colon tumors; MC38 tumours, CMP-182 10 mg, n=5, time point 16, Figure 4A, in mm2) of the same compound?
Answer: Its value is 58.07.

Question: What about the “Tumour size, Predicted (LS) mean 2” value (MC38 colon tumors; MC38 tumours, CMP-182 10 mg, n=5, time point 18, Figure 4A, in mm2) of the same compound?
Answer: The value was 64.02.

Question: What about the “Tumour size, Predicted (LS) mean 2” value (MC38 colon tumors; MC38 tumours, CMP-182 10 mg, n=5, time point 20, Figure 4A, in mm2) of the same compound?
Answer: Its value is 61.75.

Source: article PMC10374545, “A small molecule inhibitor of PTP1B and PTPN2 enhances T cell anti-tumor immunity” (Nature Communications, 2023)
